# Reference: patent US11591336B2 (Relay Therapeutics, Inc., priority 2017, dated 2023)
# Counter-ions that a name gives are not always drawn.
# Biological target: SHP2 (Homo sapiens (Human), UniProt Q06124)
# Assay: SHP2 Allosteric Inhibition Assay (DiFMUP prompt fluorescence)
# Assay type: biochemical
# Details: 0.25 nM SHP2 activated with 0.5 μM peptide IRS1_pY1172(dPEG8)pY1222; substrate DiFMUP 100 μM; 25° C.
row,Structure (SMILES),IC50 [nM]
1,"C[C@@H]1C[C@H](O)CCN1c1cnc2c(N3CCCc4ncccc43)n[nH]c2n1 (racemic) [Compound 95, (2R,4R)-1-(3-(3,4-dihydro-1,5-naphthyridin-1(2H)-yl)-1H-pyrazolo[3,4-b]pyrazin-6-yl)-2-methylpiperidin-4-ol]",≥ 10000
2,"C[C@@H]1C[C@H](CN)CCN1c1cnc2c(N3CCCc4ncccc43)n[nH]c2n1 (racemic) [Compound 109, ((2R,4R)-1-(3-(3,4-dihydro-1,5-naphthyridin-1(2H)-yl)-1H-pyrazolo[3,4-b]pyrazin-6-yl)-2-methylpiperidin-4-yl)methanamine]",1000 to 10000
3,NC[C@H]1CCN(c2cnc3c(N4CCCc5ncccc54)n[nH]c3n2)[C@H](Cc2ccccc2)C1 (racemic) [Compound 158],≥ 10000
4,NC[C@H]1CCN(c2cnc3c(N4CCCc5ncccc54)n[nH]c3n2)[C@@H](Cc2ccccc2)C1 (racemic) [Compound 159],1000 to 10000
5,"N[C@@H]1CCC[C@@]12CCN(c1cnc3c(N4CCCc5ncccc54)n[nH]c3n1)C2 (relative stereo) [Compound 206, rel-(5S,6R)-2-(3-(3,4-dihydro-1,5-naphthyridin-1(2H)-yl)-1H-pyrazolo[3,4-b]pyrazin-6-yl)-2-azaspiro[4.4]nonan-6-amine]",1000 to 10000
6,"C[C@@H]1CCN(c2n[nH]c3nc(N4CCC5(CC4)CO[C@@H](C)[C@H]5N)cnc23)c2ccc(C#N)c(F)c21 (single isomer, unassigned) [Compound 229]",< 1000
7,"C[C@@H]1OCC2(CCN(c3cnc4c(N5CC[C@H](C)c6c5ccc(C#N)c6F)n[nH]c4n3)CC2)[C@@H]1N (single isomer, unassigned) [Compound 230]",< 1000
8,"C[C@@H]1CCN(c2n[nH]c3nc(N4CCC5(CC4)CO[C@@H](C)[C@H]5N)cnc23)c2cc(F)cnc21 (single isomer, unassigned) [Compound 262, hydrochloride]",< 1000
9,"C[C@@H]1OCC2(CCN(c3cnc4c(N5CC[C@H](C)c6ncc(F)cc65)n[nH]c4n3)CC2)[C@@H]1N (single isomer, unassigned) [Compound 263, hydrochloride]",< 1000
10,"C[C@@H]1OCC2(CCN(c3cnc4c(N5CC[C@H](C)c6nc(-c7ncon7)ccc65)n[nH]c4n3)CC2)[C@@H]1N (single isomer, unassigned) [Compound 370]",< 1000
11,"C[C@@H]1CCN(c2n[nH]c3nc(N4CCC5(CC4)CO[C@@H](C)[C@H]5N)cnc23)c2ccc(-c3ncon3)nc21 (single isomer, unassigned) [Compound 371]",< 1000
12,"C[C@@H]1C[C@@H](N)CCN1c1cnc2c(N3CCCc4ncccc43)n[nH]c2n1 (stereo in doubt) [Compound 24, rel-(2R,4S)-1-(3-(3,4-Dihydro-1,5-naphthyridin-1(2H)-yl)-1H-pyrazolo[3,4-b]pyrazin-6-yl)-2-methylpiperidin-4-amine]",< 1000
13,"C[C@H]1C[C@H](N)CCN1c1cnc2c(N3CCCc4ncccc43)n[nH]c2n1 (stereo in doubt) [Compound 25, rel-(2S,4R)-1-(3-(3,4-dihydro-1,5-naphthyridin-1(2H)-yl)-1H-pyrazolo[3,4-b]pyrazin-6-yl)-2-methylpiperidin-4-amine]",< 1000

# Results, then the molecule that gave them:
row,IC50 [nM],Structure (SMILES)
1,< 1000,"C[C@@H]1C[C@@H](CN)CCN1c1cnc2c(N3CCCc4ncccc43)n[nH]c2n1 (racemic) [Compound 104, ((2R,4S)-1-(3-(3,4-dihydro-1,5-naphthyridin-1(2H)-yl)-1H-pyrazolo[3,4-b]pyrazin-6-yl)-2-methylpiperidin-4-yl)methanamine]"
2,< 1000,"C[C@@H]1CCN(c2n[nH]c3nc(N4CCC5(CC4)CO[C@@H](C)[C@H]5N)cnc23)c2ccc(-c3ncc[nH]3)nc21 (relative stereo) [Compound 448, (3S,4S)-8-{3-[(4R*)-6-(1H-imidazol-2-yl)-4-methyl-1,2,3,4-tetrahydro-1,5-naphthyridin-1-yl]-1H-pyrazolo[3,4-b]pyrazin-6-yl)-3-methyl-2-oxa-8-azaspiro[4.5]decan-4-amine hydrochloride]"
3,< 1000,"C[C@@H]1OCC2(CCN(c3cnc4c(N5CC[C@H](C)c6nc(-c7ncc[nH]7)ccc65)n[nH]c4n3)CC2)[C@@H]1N (relative stereo) [Compound 449, (3S,4S)-8-{3-[(4R*)-6-(1H-imidazol-2-yl)-4-methyl-1,2,3,4-tetrahydro-1,5-naphthyridin-1-yl]-1H-pyrazolo[3,4-b]pyrazin-6-yl)-3-methyl-2-oxa-8-azaspiro[4.5]decan-4-amine hydrochloride]"
4,< 1000,"C[C@@H]1CCN(c2n[nH]c3nc(N4CCC5(CC4)CO[C@@H](C)[C@H]5N)cnc23)c2ccc(-c3noc(=O)[nH]3)nc21 (relative stereo) [Compound 450, 3-[(8R*)-5-{6-[(3S,4S)-4-amino-3-methyl-2-oxa-8-azaspiro[4.5]decan-8-yl]-1H-pyrazolo[3,4-b]pyrazin-3-yl}-8-methyl-5,6,7,8-tetrahydro-1,5-naphthyridin-2-yl]-4,5-dihydro-1,2,4-oxadiazol-5-one]"
5,< 1000,"C[C@@H]1OCC2(CCN(c3cnc4c(N5CC[C@H](C)c6nc(-c7noc(=O)[nH]7)ccc65)n[nH]c4n3)CC2)[C@@H]1N (relative stereo) [Compound 451, 3-[(8R*)-5-{6-[(3S,4S)-4-amino-3-methyl-2-oxa-8-azaspiro[4.5]decan-8-yl]-1H-pyrazolo[3,4-b]pyrazin-3-yl}-8-methyl-5,6,7,8-tetrahydro-1,5-naphthyridin-2-yl]-4,5-dihydro-1,2,4-oxadiazol-5-one]"
6,< 1000,"CCC1CCN(c2n[nH]c3nc(N4CCC(C)(CN)CC4)cnc23)c2ccccc21 (single isomer, unassigned) [Compound 102, hydrochloride]"
7,< 1000,"CCC1CCN(c2n[nH]c3nc(N4CCC(C)(CN)CC4)cnc23)c2ccccc21 (single isomer, unassigned) [Compound 103, hydrochloride]"
8,< 1000,"C[C@H](N)C1(C)CCN(c2cnc3c(N4CCCc5ncccc54)n[nH]c3n2)CC1 (single isomer, unassigned) [Compound 110]"
9,< 1000,"C[C@@H](N)C1(C)CCN(c2cnc3c(N4CCCc5ncccc54)n[nH]c3n2)CC1 (single isomer, unassigned) [Compound 111]"
10,< 1000,"C[C@@H]1CCN(c2n[nH]c3nc(N4CCC(C)(CN)CC4)cnc23)c2ccc(C#N)cc21 (single isomer, unassigned) [Compound 115]"
11,< 1000,"C[C@H]1CCN(c2n[nH]c3nc(N4CCC(C)(CN)CC4)cnc23)c2ccc(C#N)cc21 (single isomer, unassigned) [Compound 116]"
12,< 1000,"CC1CCN(c2n[nH]c3nc(N4CCC(C)(CN)CC4)cnc23)c2cccnc21 (single isomer, unassigned) [Compound 128]"
13,< 1000,"C[C@@H]1CCN(c2n[nH]c3nc(N4CCC(C)(CN)CC4)cnc23)c2ccc(-c3nccs3)nc21 (single isomer, unassigned) [Compound 196, hydrochloride]"
14,< 1000,"C[C@H]1CCN(c2n[nH]c3nc(N4CCC(C)(CN)CC4)cnc23)c2ccc(-c3nccs3)nc21 (single isomer, unassigned) [Compound 197, hydrochloride]"
